Experimental data as given in US6107316A, “Method for treating protozoal infections” (priority 1998, dated 2000).
Values after ≈ are worked out from the molar mass of the structure shown.

How the values were obtained:
Entamoeba histolytica = assay: in vitro growth inhibitory activity against E. histolytica; format: cell-based
From the text: 35, pp. 2198-2202 (1991). Metronidazole was included as a standard in the test for comparative purposes.

[1] = test system: Encephalitozoon (Septata) intestinalis; assay: growth inhibitory activity against E. intestinalis grown on Vero cells (spore count); format: cell-based; conditions: 336 h, 1.0 μg/ml, spore number after 2 weeks, read-out: Growth (% of control)
Experimental: Compounds 2, 10 and 15 were tested for i,7 vitro growth inhibitory activity against E. intestinalis, grown on African green monkey kidney cells (Vero cells). Vero cells were grown in 25-cm^2 culture flasks at 37° C. in a humidified 5% carbon dioxide incubator. Cultures were maintained in minimal essential medium (Gibco BRL, Gaithersburg, Md., U.S.A.), supplemented with L-glutamine, Earle's salts, 5% heat-inactivated foetal calf serum (Hyclone Labs, Inc., U.S.A.), fungizone (2 μg/ml, Gibco BRL) and gentamicin (50 μg/ml, Gibco BRL). E. intestinalis spores were collected from the supernatant of an infected Vero cell culture and were used to infect normal cells to produce a fresh spore preparation for growth inhibition tests.
Growth inhibition tests were performed in 24-well culture plates. One ml of Vero cells (5×10^4 cells per ml) was placed in each well and the cells incubated for 12-15 hours at 37° C. The supernatant medium was then removed and replaced with 1 ml of medium containing 1.5-2.0×10^4 E. intestinalis spores per ml along with 1 μl of test compound dissolved in dimethylsulfoxide (DMSO) or DMSO alone for the control treatments without test compound. The plates were incubated at 37° C. and the medium was changed every 72 h along with fresh test compound in DMSO or DMSO alone (controls). After 2 weeks the supernatant was transferred from each well to a microcentiifuge tube, then concentrated by centrifugation with resuspension of the resulting E. intestinalis spore pellet in 300-500 μl fresh medium. The spore number in each sample was then determined by counting in a hemocytometer. The results in Table 11 show the effects of the test compounds on the number of spores and are expressed as a percentage of the spore number in the control treatment without test compound.

Row | SMILES | EC50 (Entamoeba histolytica) [µg/mL] | activity at 1 µg/mL [1] [%]
1 | CCC(C)(NC(=O)c1cc(Cl)c(N)c(Cl)c1)C(=O)CCl (stereo not drawn) [Compound 1] | 38 (≈ 113 µM) | 
2 | CCC(C)(NC(=O)c1cc(Cl)c(C)c(Cl)c1)C(=O)CCl (stereo not drawn) [Compound 10] | 6 (≈ 17.8 µM) | 20
